Assay results as given in patent US20170000377A1, “SYSTEM AND METHOD FOR IMAGING FREE RADICALS” (THE GENERAL HOSPITAL CORPORATION, priority 2014, published 2017).

Assay: OMRI of rat after MCAO and reperfusion with injected TEMPOL
Set-up: species or system Wistar rat
Conditions: following ischemia/reperfusion in vivo, imaged with OMRI
Method: A 3D OMRI process can be performed using a variation of a balanced steady state free precession (b-SSFP) pulse sequence, for example, such as described in Sarracanie M et al. MRM 2013 DOI: 10.1002/mrm.24705. To achieve sensitivity of b-SSFP-based OMRI to free radical concentration, an NMR/ESR coil setup can be used. For one in vivo experiment, a single loop ESR coil 400 was arranged inside a solenoid NMR coil 402, as illustrate din FIG. 4. Under anesthesia, MCAO occlusion was performed in a 3 month old Wistar rat by insertion of filament via external carotid artery. Following 75 min MCAO and 60 min reperfusion, 3.6 μl/gbw of 300 μM TEMPOL was injected into the carotid artery after which the animal was sacrificed and OMRI imaging begun.
The OMRI enhancement image may be computed from a ratio of OMRI to MRI magnitude. […] The phase of the OMRI image in FIG. 6 provides sensitive contrast even in cases where the radical concentration is very low and the Overhauser enhancement may be small.

SMILES: CC1(C)CC(O)CC(C)(C)N1[O] [TEMPOL, 4-hydroxy-2,2,6,6-tetramethylpiperidin-1-oxyl]
- crossing the BBB: crossing the BBB
